How the values were obtained:
HeLa nuclear KDACs = test system: HeLa nuclear KDACs; design: method as in Beckers et al.[46]; conditions: ref Beckers et al.[46]; read-out: HDAC Inhibition IC50; cited from earlier work
HDAC11 = HDAC11 (Homo sapiens, UniProt Q96DB2); design: method as in PMID 32608981; conditions: read-out: HDAC11 IC50; compiled data, ref [13]; cited from earlier work
[1] = test system: MCF7 breast cancer cell line; experiment: MTT cellular viability assay, MCF7; assay type: cell-based; conditions: Homo sapiens, 96 h
Procedure: The human A2780 ovarian (#93112519) and MCF-7 breast (#86012803) cancer cell lines were obtained from the European Cell Culture Collection (ECACC; Salisbury, UK). The human cardiac ventricular AC16 cell line (#SCC109) was obtained from Merck/Millipore (UK). The A2780 and MCF-7 cell lines were maintained in RPMI-1640 medium and the AC16 cell line was maintained in DMEM/F12 medium. Culture medium of all three cell lines was supplemented with 10% heat-inactivated foetal bovine serum (FBS) and 2 mM L-glutamine, with the cells maintained in a humidified 5% CO2 atmosphere at 37 °C. The media was changed every 72h and the cells passaged via trypsinisation (Trypsin EDTA, 0.25%) before reaching confluency.
Cytotoxicity of each compound against the cell lines was assessed using the MTT assay. Cells were seeded in three replicates into 96-well plates at a density of 2 × 10^3/well for 24h to facilitate cell attachment. Media was replaced with that containing either test compound (0–10µM) for A2780 and MCF7 cell lines, single concentration (10 µM) test compound for AC16 cell line, or drug vehicle (dimethyl sulphoxide; DMSO) and the cells incubated for a further 96 h at 37 °C in a humidified 5% CO2 atmosphere. […] Chemosensitivity was thereafter assessed using a standard 3-[4, 5-dimethylthiazolyl]-2,5-diphenyltetrazolium bromide (MTT) assay, with the optical density determined at 540 nm as an indicator of cellular viability.

class I HDACs = test system: class I HDACs; design: method as in PMID 31938461; conditions: ref [91]; cited from earlier work

HDAC11, sequence (Q96DB2 whole entry): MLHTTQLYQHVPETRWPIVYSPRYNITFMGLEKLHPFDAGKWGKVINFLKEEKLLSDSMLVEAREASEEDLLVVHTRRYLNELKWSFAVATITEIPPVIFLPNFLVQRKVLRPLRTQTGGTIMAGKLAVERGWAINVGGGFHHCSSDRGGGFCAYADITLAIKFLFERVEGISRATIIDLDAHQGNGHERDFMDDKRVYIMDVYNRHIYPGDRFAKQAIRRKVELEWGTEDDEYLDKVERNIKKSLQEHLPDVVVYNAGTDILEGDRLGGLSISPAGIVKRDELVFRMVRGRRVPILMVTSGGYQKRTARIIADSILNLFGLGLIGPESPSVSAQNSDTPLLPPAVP

SMILES: CC(=O)Nc1ccc(C(=O)Nc2ccccc2N)cc1 [Compound 2, Tacedinaline]
- IC50 (HeLa nuclear KDACs): 8.5 ± 5.4 µM
- IC50 (HDAC11): > 10 µM
- IC50 [1]: 11.6 ± 1.1 µM

SMILES: Nc1cc(F)ccc1NC(=O)c1ccc(CNC(=O)/C=C/c2cccnc2)cc1 [chidamide]
- IC50 (class I HDACs): 0.11 to 0.33 µM

Source: PMC12217109, “Development of novel benzamide class I selective lysine deacetylase inhibitors as potent anticancer agents” (Journal of Enzyme Inhibition and Medicinal Chemistry, 2025)
